# What was measured:
# zebrafish embryos [1] = experiment: Heart position in zebrafish embryos, scoring live embryos; type: in vivo
# From the text: (§1) MO Knockdowns in Zebrafish Embryos. TTLL3-ATG MO (5′ […] 3′; SEQ ID NO:129) and TTLL3-SP MO (5′ […] 3; SEQ ID NO:130) were obtained from Open Biosystems (Huntsville, AL). TTLL3-ATG targets the translation initiation site of ttll3 mRNA. TTLL3-SP is predicted to prevent splicing of exon 11 and cause a frame shift in exon 12. This would eliminate the coding sequence downstream of exon 10, which includes a conserved catalytic domain-encoding region. To evaluate the effect of TTLL3-SP on ttll3 mRNA, total RNA was isolated with TRIzol reagent (Invitrogen, Inc., Carlsbad, Calif.) from embryos at 7 hpf: 50 uninjected control embryos, 40 embryos injected with 3 ng TTLL3-SP MO, or 30 embryos injected with 5 ng TTLL3-SP MO. Total RNA ([…]) was used as a template for cDNA synthesis with random hexamers and oligo-dT primers and the iScript TM cDNA synthesis kit (Bio-Rad Laboratories, Hercules, Calif.). cDNA ([…]) was amplified with the following primers spanning exon 11: TTLL3-splice F, 5′-[…]-3′ (exon 10; SEQ ID NO:131); TTLL3-splice R, 5′-[…]-3′ (exon 12; SEQ ID NO:132). As expected, primers flanking exon 11 produced a shorter product in RT-PCR from embryos injected with TTLL3-SP than in controls (FIG. 50D). […] As a negative control, we injected 25 base MOs with a random base mixture at each position (Gene Tools, Inc., Philomath, Oreg.).
# zebrafish embryos [2] = experiment: Expression pattern of southpaw in zebrafish embryos (in situ hybridization); type: in vivo
# From the text: as §1
# (§2) Microscopy of Zebrafish. For whole-mount, in situ hybridization, embryos were fixed as previously described (Hagos and Dougan, 2007), stored in 100% methanol at −20° C., and stained with spaw, lefty1, lefty2, and cmlc2 probes (Yelon, 2001). Embryos were photographed under differential interference contrast with a Zeiss Axioplan 2 microscope with Slidebook (Intelligent Imaging Innovations, Denver, Colo.). For immunofluorescence, the embryos were manually dechorionated and fixed with 0.5% Triton X-100 and 4% paraformaldehyde in PBT (0.1% Tween-20 in PBS) at 4° C. overnight. After washing with PBT, embryos were dehydrated in methanol/PBT series and incubated overnight in 100% methanol at −20° C. After rehydration, embryos were blocked for 1-2 hr in 2% BSA, 0.5% normal goat serum,l%DMSO, 0.5% Triton X-100 in PBS, and incubated overnight at 4° C. with one of the following antibodies: 6-11 B-1 (1:1000); TAP952 (1:2000); AXO49 (1:2000); and GT335 (1:1000); polyE (1:500). After washing 3×10 min with 0.5% Triton X-100 in PBS, embryos were incubated overnight at 4° C. in anti-mouse-IgG-FITC or anti-rabbit-IgG-Cy3 (1:500; Zymed), washed (3×10 min), mounted in 100 mg/ml of DABCO (Sigma-Aldrich) in PBS, and examined on a Leica TCS SP confocal microscope.
# zebrafish embryos [3] = experiment: Heart position in zebrafish embryos, in situ hybridization; type: in vivo
# From the text: as §1, §2
# zebrafish embryos [4] = experiment: Expression pattern of lefty2 in zebrafish embryos (in situ hybridization); type: in vivo
# From the text: as §1, §2
# zebrafish embryos [5] = experiment: Morphology of zebrafish morphant embryos; conditions: in vivo
# From the text: as §1
# zebrafish embryos [6] = experiment: Tubulin monoglycylation in cilia of zebrafish embryos (TAP952 immunofluorescence); type: in vivo
# From the text: as §1, §2
# Tetrahymena = conditions: cited from earlier work
# [7] = test system: cell body microtubules of GFP-Ttll6Ap-overexpressing Tetrahymena cells; experiment: Stability of cell body microtubules against microtubule-destabilizing compounds, GFP-Ttll6Ap-overexpressing cells; type: cell-based, Tetrahymena thermophila; conditions: nocodazole 40 μM, oryzalin 10 μM, 30 min
# Procedure: (§3) Immunofluorescence and electron microscopy. GFP-Ttll6Ap-expressing cells were grown in SPP with 0.5 to 2.5 μg of CdCl2/ml for 2 to 4 h. For GFP-Ttll6Ap localization, a 10-μl drop of cells was placed on a coverslip, followed by the addition of 20 μl of 2% paraformaldehyde in PHEM buffer (Schliwa and van Blerkom. 1981. J. Cell Biol. 90:222-235) and, after 20 s, the addition of 10 μl of 0.5% Triton X-100 in PHEM. The cells were subjected to immunofluorescence (Janke et al., 2005. Science 308:1758-1762) with the following primary antibodies: 12G10, an anti-α-tubulin monoclonal antibody (MAb) (Jerka-Dziadosz et al., 1995. Dev. Biol. 169:644-661) at 1:50; MAb ID5 (40), which in Tetrahymena is specific to polyglutamylated tubulin (Wloga et al., 2008. Eukaryot. Cell 7:1362-1372), at 1:50; poly(E) antipolyglutamic acid antibodies (1:100) (Shang et al., 2002. J. Cell Biol. 158:1195-1206); TAP952, an anti-monoglycylated tubulin MAb (1:5,000) (Bré et al., 1998. Mol. Biol. Cell 9:2655-2665; Callen et al., 1994. Biol. Cell 81:95-119); and 6-11 B-1, an anti-acetyl-K40 α-tubulin MAb (1:200) (LeDizet and Piperno. 1991.
# [8] = test system: cytoplasmic microtubules of wild-type Tetrahymena cells; experiment: Stability of cell body microtubules against microtubule-destabilizing compounds, wild-type cells; type: cell-based, Tetrahymena thermophila; conditions: nocodazole 40 μM, oryzalin 10 μM, 30 min
# Procedure: as §3
# 3AB-KO Tetrahymena cells = experiment: Axoneme elongation by paclitaxel in 3AB-KO cells (immunofluorescence); type: cell-based, Tetrahymena thermophila; conditions: 25 μM paclitaxel for 4 hr
# Procedure: Cultures. Tetrahymena thermophila cells were grown in SPP medium. To determine the growth rate, cells were diluted to 10^4 cells/ml and grown in 10 ml of SPP in 150 ml flasks. In some experiments, paclitaxel (LC Laboratories, Woburn, Mass.) was added to the SPP medium. WT in Kalkutta and Tupfel longfin (commonly known as “WIK” and “TL”, respectively) zebrafish were raised at 28° C. at 14 hr light/10 hr dark cycle. The embryos were cultured in egg water at 28° C.
# Immunofluorescence and Electron Microscopy of Tetrahymena. Immuno-fluorescence was done as previously described (Wloga et al., 2006. Mol. Biol. Cell 17, 2799-2810) and quantified using mixed mutant and WT cells (fed with India ink) imaged side by side. The average pixel intensity was determined for sections of axonemes from the base to below the tip using ImageJ. TEM was performed as previously described (Jerka-Dziadosz et al., 2001. Protist 152, 53-67). For immunoelectron TEM, cells were fixed as for immunofluorescence, reacted with anti-GFP antibodies (1:1000; Abcam) in 3% bovine serum albumin (BSA) in the PHEM buffer with 0.1% Tween-20 for 2 hr, followed by anti-rabbit IgG-10 nm gold antibodies (GE Healthcare) at 1:60 in 3% BSA in PBS for 1.5 hr. […] After washing, cells were dehydrated in an ethanol series, embedded in Epon, sectioned, and analyzed in a JEM 1210 electron microscope.
# [9] = test system: wild-type Tetrahymena cells; experiment: Axoneme/cilium length in paclitaxel-treated wild-type cells (immunofluorescence); type: cell-based, Tetrahymena thermophila
# Procedure: as §3, with “1991. Methods Enzymol. 196:264-274). The secondary goat antibodies were as follows: anti-mouse-FITC, anti-mouse-Cy3, anti-rabbit-Cy3, and anti-rabbit-Cy5 (Zymed) at 1:200 dilutions. Cells were viewed under either Leica TCS SP or Zeiss LSM 510 VIS/META confocal microscopes. […] Confocal images were recorded with a 0.8-μm distance between z-sections, and sets of two to four z-sections were merged. The lengths of the cilia were measured by using ImageJ 1.37. […]” for “1991.”
# Immunofluorescence and Electron Microscopy of Tetrahymena. Immuno-fluorescence was done as previously described (Wloga et al., 2006. Mol. Biol. Cell 17, 2799-2810) and quantified using mixed mutant and WT cells (fed with India ink) imaged side by side. The average pixel intensity was determined for sections of axonemes from the base to below the tip using ImageJ. […] After washing, cells were dehydrated in an ethanol series, embedded in Epon, sectioned, and analyzed in a JEM 1210 electron microscope.
# [10] = test system: GFP-Ttll6Ap-overproducing Tetrahymena cells; experiment: Cilium length in paclitaxel-treated GFP-Ttll6Ap-overproducing cells (immunofluorescence); type: cell-based, Tetrahymena thermophila; conditions: 40 μM paclitaxel for 3 h
# Procedure: as §3, with “1991. Methods Enzymol. 196:264-274). The secondary goat antibodies were as follows: anti-mouse-FITC, anti-mouse-Cy3, anti-rabbit-Cy3, and anti-rabbit-Cy5 (Zymed) at 1:200 dilutions. Cells were viewed under either Leica TCS SP or Zeiss LSM 510 VIS/META confocal microscopes. To measure the length of the cilia, the cells were labeled with MAb 12G10, [and, in some experiments, double labeled with poly(E) antibodies]. Confocal images were recorded with a 0.8-μm distance between z-sections, and sets of two to four z-sections were merged. The lengths of the cilia were measured by using ImageJ 1.37. For transmission electron microscopy (TEM), the cells were prepared as described previously (Jerka-Dziadosz et al., 2001. Protist 152:53-67).” for “1991.”
# [11] = GFP-Ttll6Ap-overexpressing cells
molecule,measurement,setting,value
TTLL3-ATG-MO: antisense morpholino 5′ GTGTTGGTGCATGTTTGAGTTAACC 3′; targets the translation initiation site of ttll3 mRNA (all phosphorodiamidate morpholino (PMO)),"heart position left, number of embryos",zebrafish embryos [1],56
same,"heart position left, percent of embryos",zebrafish embryos [1],50%
same,"heart position middle, number of embryos",zebrafish embryos [1],33
same,"heart position middle, percent of embryos",zebrafish embryos [1],29.5%
same,"heart position right, number of embryos",zebrafish embryos [1],23
same,"heart position right, percent of embryos",zebrafish embryos [1],(20.5%)
same,"southpaw expression: Bilatera or midline, number of embryos",zebrafish embryos [2],34
same,"southpaw expression: Bilatera or midline, percent of embryos",zebrafish embryos [2],(43.7%)
same,"southpaw expression: No specific signal, number of embryos",zebrafish embryos [2],19
same,"southpaw expression: No specific signal, percent of embryos",zebrafish embryos [2],(24.3%)
same,"southpaw expression: left, number of embryos",zebrafish embryos [2],14
same,"southpaw expression: left, percent of embryos",zebrafish embryos [2],(17.9%)
same,"southpaw expression: right, number of embryos",zebrafish embryos [2],11
same,"southpaw expression: right, percent of embryos",zebrafish embryos [2],(14.1%)
same,"heart position left, number of embryos",zebrafish embryos [3],21
same,"heart position left, percent of embryos",zebrafish embryos [3],50%
same,"heart position middle, number of embryos",zebrafish embryos [3],7
same,"heart position middle, percent of embryos",zebrafish embryos [3],16.7%
same,"heart position right, number of embryos",zebrafish embryos [3],14
same,"heart position right, percent of embryos",zebrafish embryos [3],(33.3%)
same,"lefty2 expression: Bilatera or midline, number of embryos",zebrafish embryos [4],5
same,"lefty2 expression: Bilatera or midline, percent of embryos",zebrafish embryos [4],(11.9%)
same,"lefty2 expression: No specific signal, number of embryos",zebrafish embryos [4],8
same,"lefty2 expression: No specific signal, percent of embryos",zebrafish embryos [4],(19%)
same,"lefty2 expression: left, number of embryos",zebrafish embryos [4],15
same,"lefty2 expression: left, percent of embryos",zebrafish embryos [4],(35.7%)
same,"lefty2 expression: right, number of embryos",zebrafish embryos [4],14
same,"lefty2 expression: right, percent of embryos",zebrafish embryos [4],(33.4%)
same,hydrocephalic morphants,zebrafish embryos [5],10%
same,morphant embryos with curly tail,zebrafish embryos [5],76%
same,levels of tubulin monoglycylation/glycylation in cilia,"zebrafish embryos [6]; 72 hpf, TTLL3-ATG MO 1 ng, TTLL3-SP MO 3 ng",greatly reduced
same,morphants with TAP952 signal not detected in cilia of the distal part of pronephric duct,zebrafish embryos [6]; n=46,98%
same,morphants with TAP952 signal not detected in cilia of the medial part of pronephric duct,zebrafish embryos [6]; n=46,61%
same,morphants with TAP952 signal not detected in cilia of the spinal cord,zebrafish embryos [6]; n=46,89%
C[S+](C)[O-] [DMSO],concentration tolerated well,Tetrahymena,up to 2.5%
COC(=O)Nc1nc2ccc(C(=O)c3cccs3)cc2[nH]1 [nocodazole],effect on cell body microtubules,[7],retained abundant cell body microtubules
same,effect on cytoplasmic microtubules,[8],rapid depolymerization of cytoplasmic microtubules
CC(=O)O[C@H]1C(=O)[C@@]2(C)[C@H]([C@H](OC(=O)c3ccccc3)[C@]3(O)C[C@H](OC(=O)[C@H](O)[C@@H](NC(=O)c4ccccc4)c4ccccc4)C(C)=C1C3(C)C)[C@]1(OC(C)=O)CO[C@@H]1C[C@@H]2O [paclitaxel],elongation of axonemes,3AB-KO Tetrahymena cells,not observed
same,effect on axonemes,[9]; 25 μM paclitaxel for 4 hr,remarkable elongation of axonemes
same,increase of the average axoneme length,[9]; 40 μM paclitaxel for 3 h,20%
same,axoneme length after treatment,"[9]; 40 μM paclitaxel for 3 h, n=173",6.05±1.12 μm
same,elongation of preexisting cilia,[10]; [11],22%
same,"length of preexisting cilia, paclitaxel treated",[10]; [11],6.39±0.82 μm
same,"length of assembling cilia, paclitaxel treated",[10]; GFP-Ttll6Ap-overproducing cells,2.7±0.6 μm
same,change of length of assembling cilia,"[10]; GFP-Ttll6Ap-overproducing cells, vs no drug",44%

# From patent publication US8361780B2, “Biological system and assay for identifying modulators of tubulin ligases” (University of Georgia Research Foundation, Inc., priority 2005, dated 2013)
